Marks after values point to notes of the source that are not given here.
What was measured:
[1] = system: pressor response to methoxamine in rats; assay: Influence on blood vasopressor response to methoxamine in rats; assay type: in vivo, rat; conditions: 2.5 mg/kg iv, methoxamine 150 μg/kg before and 5 min after compound
Procedure, shortened: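 Anaesthetised (thiopental 75 mg/kg ip) normotensive Wistar rats, carotid artery cannulated. Pressor response to methoxamine (150 µg/kg, iv) recorded before and 5 min after test compound, given at its lowest hypotensive dose, after 15-min stabilisation.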

[2] = system: calcium chloride-induced arrhythmia model in rats; assay: Prophylactic antiarrhythmic activity in calcium chloride-induced arrhythmia; assay type: in vivo, rat; conditions: 5 mg/kg iv 15 min before calcium chloride 140 mg/kg; number of animals with event
[3] = system: aconitine-induced arrhythmia model in rats; assay: Prophylactic antiarrhythmic activity in aconitine-induced arrhythmia; assay type: in vivo, rat; conditions: 5 mg/kg iv 15 min before aconitine 20 μg/kg; number of animals with event
α2-adrenergic receptors = assay: α2-adrenoceptor radioligand binding assay ([3H]-clonidine, rat cortex); conditions: rat cortex tissue, mean ± SEM, n.a. = did not bind at 10^−5 M
Procedure, shortened: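 Rat cerebral cortex membranes in 50 mM Tris-HCl pH 7.6, with 7–8 compound concentrations in duplicate. Nonspecific binding defined by 10 μM phentolamine for [3H]-prazosin (α1) or 10 μM clonidine for [3H]-clonidine (α2). Filtration and scintillation counting; Ki calculated.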

normal ECG in rats = assay: Effect on a normal electrocardiogram in rats; assay type: in vivo, rat; conditions: for HR—heart rate / PQ interval / QRS complex / QTc (Bazzett's formula) / decrease of the heart rate: 5 mg/kg iv; for HR—heart rate / PQ interval / QRS complex / QTc (Bazzett's formula): mean ± SD; for PQ interval / QRS complex / QTc (Bazzett's formula): in ms (unit assumed)
Method: The procedure was performed to exclude the negative effects of the tested compounds on the normal ECG, according to the method described earlier. […] Firstly, animals were anesthetized with thiopental (75 mg/kg ip). […] The influence on PQ, QTc interval, QRS complex, and heart rate was evaluated. The Bazzett’s formula: QTc = QT/√RR was used to calculate QTc. All the studied compounds were administered at a dose of 5 mg/kg.

normotensive rats = assay: Influence on blood pressure in the normotensive rats; assay type: in vivo, rat; conditions: for DBP—diastolic blood pressure / SBP—systolic blood pressure: mean ± SD
Procedure, shortened: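 Anaesthetised (thiopental 75 mg/kg ip) normotensive Wistar rats with right carotid artery cannulated for direct pressure recording. Compounds given iv after 15 min stabilisation. Systolic and diastolic blood pressure were monitored.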

[4] = system: adrenaline-induced arrhythmia model in rats; assay: Prophylactic antiarrhythmic activity in adrenaline-induced arrhythmia; assay type: in vivo, rat; conditions: for Blocks / Bradycardia / Extrasystoles / Mortality: number of animals with event
[5] = 0 min (prior to administration)
[6] = 1.0 mg/kg iv, 0 min (before administration)
[7] = 2.5 mg/kg iv, 0 min (before administration)
[8] = 0.25 mg/kg iv 15 min before adrenaline 20 μg/kg
[9] = 0.5 mg/kg iv 15 min before adrenaline 20 μg/kg
[10] = 1 mg/kg iv 15 min before adrenaline 20 μg/kg

Q: Which results are given for `Cl.NC(=O)c1ccccc1OCCCCCN1CCN(c2cccc(Cl)c2)CC1` [JJGW02, 2-{5-[4-(3-chlorophenyl)piperazin-1-ylo]pentoxy}benzamide hydrochloride]?
A: attenuation of the methoxamine pressor response [1]: 100%; Blocks [2]: 5/6; Bradycardia [2]: 6/6; Extrasystoles [2]: 5/6; Fibrillations [2]: 4/6; Mortality [2]: 6/6; Blocks [3]: 6/6; Bradycardia [3]: 6/6; Extrasystoles [3]: 6/6; Fibrillations [3]: 6/6; Mortality [3]: 6/6; Adrenergic Receptors—pKi α2 (α2-adrenergic receptors): 6.20 ± 0.02; dose affecting the heart rate relative to the ED50 value in the adrenaline-induced arrhythmia model (normal ECG in rats; 5 mg/kg iv vs ED50): 11 fold; HR—heart rate (normal ECG in rats; [5]): 311.1 ± 24.4; PQ interval (normal ECG in rats; [5]): 42.6 ± 2.0; QRS complex (normal ECG in rats; [5]): 36.0 ± 1.1; QTc (Bazzett's formula) (normal ECG in rats; [5]): 183.3 ± 7.1; decrease of the heart rate (normal ECG in rats; 5th min after the injection): 10%; decrease of the heart rate (normal ECG in rats; 10th min after the injection): 15%; decrease of the heart rate (normal ECG in rats; 15th min after the injection): 16%; HR—heart rate (normal ECG in rats; 5 min): 278.7 ± 37.0; PQ interval (normal ECG in rats; 5 min): 41.7 ± 1.8; QRS complex (normal ECG in rats; 5 min): 35.2 ± 1.2; QTc (Bazzett's formula) (normal ECG in rats; 5 min): 175.4 ± 14.0; HR—heart rate (normal ECG in rats; 10 min): 265.0 ± 30.1; PQ interval (normal ECG in rats; 10 min): 42.2 ± 1.6; QRS complex (normal ECG in rats; 10 min): 36.1 ± 1.8; QTc (Bazzett's formula) (normal ECG in rats; 10 min): 173.2 ± 15.7; HR—heart rate (normal ECG in rats; 15 min): 262.0 ± 37.3; PQ interval (normal ECG in rats; 15 min): 44.8 ± 5.9; QRS complex (normal ECG in rats; 15 min): 35.2 ± 0.7; QTc (Bazzett's formula) (normal ECG in rats; 15 min): 175.1 ± 16.0; DBP—diastolic blood pressure (normotensive rats; [6]): 87.7 ± 14.9 mmHg; SBP—systolic blood pressure (normotensive rats; [6]): 118.0 ± 10.5 mmHg; DBP—diastolic blood pressure (normotensive rats; 1.0 mg/kg iv, 5 min): 82.7 ± 16.0 mmHg; SBP—systolic blood pressure (normotensive rats; 1.0 mg/kg iv, 5 min): 113.7 ± 8.7 mmHg; DBP—diastolic blood pressure (normotensive rats; 1.0 mg/kg iv, 10 min): 83.3 ± 10.3 mmHg; SBP—systolic blood pressure (normotensive rats; 1.0 mg/kg iv, 10 min): 111.2 ± 6.4 mmHg; DBP—diastolic blood pressure (normotensive rats; 1.0 mg/kg iv, 20 min): 80.0 ± 14.1 mmHg; SBP—systolic blood pressure (normotensive rats; 1.0 mg/kg iv, 20 min): 109.7 ± 9.1 mmHg; DBP—diastolic blood pressure (normotensive rats; 1.0 mg/kg iv, 30 min): 73.7 ± 10.6 mmHg; SBP—systolic blood pressure (normotensive rats; 1.0 mg/kg iv, 30 min): 105.7 ± 7.5 mmHg; DBP—diastolic blood pressure (normotensive rats; 1.0 mg/kg iv, 40 min): 75.0 ± 13.2 mmHg; SBP—systolic blood pressure (normotensive rats; 1.0 mg/kg iv, 40 min): 107.7 ± 11.5 mmHg; DBP—diastolic blood pressure (normotensive rats; 1.0 mg/kg iv, 50 min): 73.7 ± 13.9 mmHg; SBP—systolic blood pressure (normotensive rats; 1.0 mg/kg iv, 50 min): 108.7 ± 12.9 mmHg; DBP—diastolic blood pressure (normotensive rats; 1.0 mg/kg iv, 60 min): 76.7 ± 19.2 mmHg; SBP—systolic blood pressure (normotensive rats; 1.0 mg/kg iv, 60 min): 111.0 ± 18.0 mmHg; DBP—diastolic blood pressure (normotensive rats; [7]): 84.8 ± 12.1 mmHg; SBP—systolic blood pressure (normotensive rats; [7]): 114.3 ± 15.7 mmHg; DBP—diastolic blood pressure (normotensive rats; 2.5 mg/kg iv, 5 min): 72.0 ± 9.4 ^c mmHg; SBP—systolic blood pressure (normotensive rats; 2.5 mg/kg iv, 5 min): 103.2 ± 13.0 ^c mmHg; DBP—diastolic blood pressure (normotensive rats; 2.5 mg/kg iv, 10 min): 72.8 ± 11.6 ^b mmHg; SBP—systolic blood pressure (normotensive rats; 2.5 mg/kg iv, 10 min): 104.2 ± 13.2 ^b mmHg; DBP—diastolic blood pressure (normotensive rats; 2.5 mg/kg iv, 20 min): 73.0 ± 9.6 ^b mmHg; SBP—systolic blood pressure (normotensive rats; 2.5 mg/kg iv, 20 min): 102.8 ± 13.4 ^b mmHg; DBP—diastolic blood pressure (normotensive rats; 2.5 mg/kg iv, 30 min): 72.3 ± 8.1 ^a mmHg; SBP—systolic blood pressure (normotensive rats; 2.5 mg/kg iv, 30 min): 103.7 ± 10.8 ^a mmHg; DBP—diastolic blood pressure (normotensive rats; 2.5 mg/kg iv, 40 min): 73.8 ± 9.4 ^a mmHg; SBP—systolic blood pressure (normotensive rats; 2.5 mg/kg iv, 40 min): 106.5 ± 10.6 mmHg; DBP—diastolic blood pressure (normotensive rats; 2.5 mg/kg iv, 50 min): 73.7 ± 8.7 mmHg; SBP—systolic blood pressure (normotensive rats; 2.5 mg/kg iv, 50 min): 103.2 ± 9.4 ^b mmHg; DBP—diastolic blood pressure (normotensive rats; 2.5 mg/kg iv, 60 min): 73.7 ± 7.9 ^a mmHg; SBP—systolic blood pressure (normotensive rats; 2.5 mg/kg iv, 60 min): 105.2 ± 9.7 ^a mmHg; decrease of the systolic blood pressure (normotensive rats; 2.5 mg/kg iv, between the 5th and 30th min and between the 50th and 60th min): 8–10%; decrease of the diastolic blood pressure (normotensive rats; 2.5 mg/kg iv, between the 5th to 40th min and in the 60th min): 13–15%; Blocks [4, 8]: 5/6; Bradycardia [4, 8]: 5/6; Extrasystoles [4, 8]: 5/6; Mortality [4, 8]: 3/6; Blocks [4, 9]: 6/6; Bradycardia [4, 9]: 5/6; Extrasystoles [4, 9]: 5/6; Mortality [4, 9]: 0/6; Blocks [4, 10]: 5/6; Bradycardia [4, 10]: 4/6; Extrasystoles [4, 10]: 5/6; Mortality [4, 10]: 1/6; ED50 ([4]; prophylactic, iv 15 min before adrenaline 20 μg/kg, confidence limits in brackets (Litchfield and Wilcoxon)): 0.45 (0.11–1.77) mg/kg
